SMILES strings stand for the structures.

T1 sequence (P41279 30-398): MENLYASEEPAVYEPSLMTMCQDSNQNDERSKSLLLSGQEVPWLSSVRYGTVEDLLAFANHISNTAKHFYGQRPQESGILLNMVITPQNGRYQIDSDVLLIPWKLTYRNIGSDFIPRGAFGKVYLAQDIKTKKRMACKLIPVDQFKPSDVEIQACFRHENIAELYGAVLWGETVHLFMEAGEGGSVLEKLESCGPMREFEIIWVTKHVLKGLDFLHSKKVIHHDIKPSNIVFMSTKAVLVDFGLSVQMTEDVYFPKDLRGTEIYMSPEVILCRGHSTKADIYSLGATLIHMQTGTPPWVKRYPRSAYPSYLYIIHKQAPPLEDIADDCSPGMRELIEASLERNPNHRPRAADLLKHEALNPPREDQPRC

The experiment has as its target T1, human Cot/Tpl2 kinase (Homo sapiens, UniProt P41279).
T1 construct: human Cot/Tpl2 kinase construct encoding residues 30-398; 6His (N); made in house; host or cells: Sf9 insect cells, baculovirus system (BD Biosciences)
Kind of experiment: Tpl2/Cot kinase assay: GST-MEK1 phosphorylation detected by ELISA (DELFIA Eu). Format: biochemical. The following applies: 0.4 nM Tpl2, 35 nM GST-MEK1, 50 uM ATP, 1 h at 30° C. A digest of the protocol: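 Substrate phosphorylation (GST-MEK1 Ser217/221) quantified by DELFIA europium ELISA, yielding IC50 values. Reaction: 1 h at 30° C, pH 7.2 MOPS buffer, 50 uM ATP, 35 nM GST-MEK1, 0.4 nM monomeric His-Tpl2 purified from Sf9 cells, compounds at 1% final DMSO; stopped with EDTA.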
For orientation: An ELISA detects its analyte on a solid surface through an enzyme-linked reagent.
For orientation: IC50 means the concentration at which inhibition is half-maximal. Read a high IC50 as weaker potency in that assay. On to `Cc1cc(N)cc2c(Nc3cccc(Br)c3)c(C#N)cnc12` [Example 125, 6-amino-4-(3-bromophenylamino)-8-methylquinoline-3-carbonitrile], for which half-maximal inhibition (IC50) required 11000 nM. As for `Cc1cc(NCc2cccnc2)cc2c(Nc3cccc(Br)c3)c(C#N)cnc12` [Example 126, 4-(3-bromophenylamino)-8-methyl-6-(pyridin-3-ylmethylamino)quinoline-3-carbonitrile], the figure is 3300 nM; as for `CC(Nc1ccc2ncc(C#N)c(Nc3ccc(F)c(Cl)c3)c2c1)c1ccccn1` (stereo not shown) [Example 127, 4-(3-chloro-4-fluorophenylamino)-6-(1-(pyridin-2-yl)ethylamino)quinoline-3-carbonitrile], 64 nM. The compound `Cc1c(CNc2ccc3ncc(C#N)c(Nc4ccc(F)c(Cl)c4)c3c2)ncn1C` [Example 128, 4-(3-chloro-4-fluorophenylamino)-6-((1,5-dimethyl-1H-imidazol-4-yl)methylamino)quinoline-3-carbonitrile] displayed an IC50 of 3.2 nM. Next, `Cc1c(CNc2ccc3ncc(C#N)c(Nc4ccc(F)c(Cl)c4)c3c2)ncn1CCN1CCOCC1` [Example 129, 4-(3-chloro-4-fluorophenylamino)-6-((5-methyl-1-(2-morpholinoethyl)-1H-imidazol-4-yl)methylamino)quinoline-3-carbonitrile]: 14 nM.

For `Cc1ncn(CCN2CCOCC2)c1CNc1ccc2ncc(C#N)c(Nc3ccc(F)c(Cl)c3)c2c1` [Example 130, 4-(3-chloro-4-fluorophenylamino)-6-((4-methyl-1-(2-morpholinoethyl)-1H-imidazol-5-yl)methylamino)quinoline-3-carbonitrile], the IC50 was found to be 260 nM.

The compound `Cc1cc(NCCN2CCOCC2)cc2c(Nc3cccc(Br)c3)c(C#N)cnc12` [Example 131, 4-(3-bromophenylamino)-8-methyl-6-(2-morpholinoethylamino)quinoline-3-carbonitrile] had an IC50 of 16000 nM.

`Cc1nn(C)c(Cl)c1CNc1ccc2ncc(C#N)c(Nc3ccc(F)c(Cl)c3)c2c1` [Example 132, 6-((5-chloro-1,3-dimethyl-1H-pyrazol-4-yl)methylamino)-4-(3-chloro-4-fluorophenylamino)quinoline-3-carbonitrile] gave an IC50 of 17300 nM. In turn, `Cc1ncn(C)c1CNc1ccc2ncc(C#N)c(Nc3ccc(F)c(Cl)c3)c2c1` [Example 133, 4-(3-chloro-4-fluorophenylamino)-6-((1,4-dimethyl-1H-imidazol-5-yl)methylamino)quinoline-3-carbonitrile] yielded an IC50 of 200 nM. With `CN(C)Cc1cc(NCCN2CCOCC2)cc2c(Nc3cccc(Br)c3)c(C#N)cnc12` [Example 134, 4-(3-bromophenylamino)-8-((dimethylamino)methyl)-6-(2-morpholinoethylamino)quinoline-3-carbonitrile], the IC50 is > 40000 nM. `Cn1cc(Cl)c(CNc2ccc3ncc(C#N)c(Nc4ccc(F)c(Cl)c4)c3c2)n1` [Example 135, 6-((4-chloro-1-methyl-1H-pyrazol-3-yl)methylamino)-4-(3-chloro-4-fluorophenylamino)quinoline-3-carbonitrile]: the IC50 was > 40000 nM. In the case of `N#Cc1cnc2ccc(NCc3nccn3CC(=O)O)cc2c1Nc1ccc(F)c(Cl)c1` [Example 136, 2-(2-((4-(3-chloro-4-fluorophenylamino)-3-cyanoquinolin-6-ylamino)methyl)-1H-imidazol-1-yl)acetic acid], the IC50 came out at 64 nM. As for `COC(=O)Cn1ccnc1CNc1ccc2ncc(C#N)c(Nc3ccc(F)c(Cl)c3)c2c1` [Example 137, Methyl 2-(2-((4-(3-chloro-4-fluorophenylamino)-3-cyanoquinolin-6-ylamino)methyl)-1H-imidazol-1-yl)acetate], the figure is 28 nM. As for `N#Cc1cnc2ccc(NCc3nccn3CC(=O)N3CCOCC3)cc2c1Nc1ccc(F)c(Cl)c1` [Example 138, 4-(3-chloro-4-fluorophenylamino)-6-((1-(2-morpholino-2-oxoethyl)-1H-imidazol-2-yl)methylamino)quinoline-3-carbonitrile], half-maximal inhibition (IC50) required 27 nM.

Compound `N#Cc1cnc2ccc(NCc3nccn3CC(N)=O)cc2c1Nc1ccc(F)c(Cl)c1` [Example 139, 2-(2-((4-(3-chloro-4-fluorophenylamino)-3-cyanoquinolin-6-ylamino)methyl)-1H-imidazol-1-yl)acetamide] displayed an IC50 of 99 nM. Compound `CN(C)C(=O)Cn1ccnc1CNc1ccc2ncc(C#N)c(Nc3ccc(F)c(Cl)c3)c2c1` [Example 140, 2-(2-((4-(3-chloro-4-fluorophenylamino)-3-cyanoquinolin-6-ylamino)methyl)-1H-imidazol-1-yl)-N, N-dimethylacetamide] came in with an IC50 of 20 nM. Compound `CN1CCN(C(=O)Cn2ccnc2CNc2ccc3ncc(C#N)c(Nc4ccc(F)c(Cl)c4)c3c2)CC1` [Example 141, 4-(3-chloro-4-fluorophenylamino)-6-((1-(2-(4-methylpiperazin-1-yl)-2-oxoethyl)-1H-imidazol-2-yl)methylamino)quinoline-3-carbonitrile] displayed an IC50 of 120 nM.

In turn, `CC(C)(C)OC(=O)N1CCC(NC(=O)Cn2ccnc2CNc2ccc3ncc(C#N)c(Nc4ccc(F)c(Cl)c4)c3c2)CC1` [Example 142, tert-butyl 4-(2-(2-((4-(3-chloro-4-fluorophenylamino)-3-cyanoquinolin-6-ylamino)methyl)-1H-imidazol-1-yl)acetamido)piperidine-1-carboxylate] came in with an IC50 of 1800 nM.

As to `N#Cc1cnc2ccc(NCc3nccn3CC(=O)NC3CCNCC3)cc2c1Nc1ccc(F)c(Cl)c1` [Example 143, 2-(2-((4-(3-chloro-4-fluorophenylamino)-3-cyanoquinolin-6-ylamino)methyl)-1H-imidazol-1-yl)-N-(piperidin-4-yl)acetamide], half-maximal inhibition (IC50) was put at 750 nM. `N#Cc1cnc2ccc(NCc3ccccc3F)cc2c1Nc1ccc(F)c(Cl)c1` [Example 144, 6-(2-fluorobenzylamino)-4-(3-chloro-4-fluorophenylamino)quinoline-3-carbonitrile] displayed an IC50 of 920 nM. The compound `N#Cc1cnc2ccc(NCc3cccc(F)c3)cc2c1Nc1ccc(F)c(Cl)c1` [Example 145, 6-(3-fluorobenzylamino)-4-(3-chloro-4-fluorophenylamino)quinoline-3-carbonitrile] yielded an IC50 of 2100 nM. Compound `N#Cc1cnc2ccc(NCc3ccc(F)cc3)cc2c1Nc1ccc(F)c(Cl)c1` [Example 146, 6-(4-fluorobenzylamino)-4-(3-chloro-4-fluorophenylamino)quinoline-3-carbonitrile] returned an IC50 of 5300 nM. In turn, `N#Cc1cnc2ccc(NCc3cccc(Br)c3)cc2c1Nc1ccc(F)c(Cl)c1` [Example 147, 6-(3-bromobenzylamino)-4-(3-chloro-4-fluorophenylamino)quinoline-3-carbonitrile] gave an IC50 of 1600 nM. Next, `N#Cc1cnc2ccc(NCc3cccc(OC(F)(F)F)c3)cc2c1Nc1ccc(F)c(Cl)c1` [Example 148, 6-(3-(trifluoromethoxy)benzylamino)-4-(3-chloro-4-fluorophenylamino)quinoline-3-carbonitrile]: 2200 nM. With `N#Cc1cnc2ccc(NCc3cccc(C(F)(F)F)c3)cc2c1Nc1ccc(F)c(Cl)c1` [Example 149, 6-(3-(trifluoromethyl)benzylamino)-4-(3-chloro-4-fluorophenylamino)quinoline-3-carbonitrile], the midpoint of inhibition, the IC50, lay at 1500 nM.

(Values after patent US20060264460A1 (Wyeth, priority 2005, published 2006).)
